Among the data in ChEMBL document CHEMBL1157539, “Thousands of chemical starting points for antimalarial lead identification” (Nature, 2010) are XC50 values, retold here.

The subject of the test is Plasmodium falciparum. In words: GSK_TCMDC: Inhibition of Plasmodium falciparum 3D7 in whole erythrocytes, using parasite LDH activity as an index of growth. The format is functional, organism-based. To be noted: Plasmodium falciparum, 3D7.
Take `CO/C(=C\C=C\c1cc2cc(Cl)c(Cl)cc2[nH]1)C(=O)NCCCNCCN(C)c1ccccc1`: the XC50 came to 784 nM.

Regarding `O=C(Nc1ccc(F)c([N+](=O)[O-])c1)Nc1cc(C(F)(F)F)ccc1Cl`, the XC50 turned out to be 861 nM. Turning to `CN1CCC(N2CCN(Cc3cccc(-c4ccc(-c5nc6ccccc6[nH]5)cc4)c3)CC2)CC1`, the XC50 was determined as 156 nM. `Cn1nc(-c2cccc(CNCc3ccccc3)c2)c2cnc(NC3CCCC3)nc21` had an XC50 of 1260 nM. With `COc1ccc(C2CC(c3cccs3)=NN2C(=O)c2ccco2)cc1OC` (stereo not drawn) the figure was 172 nM; with `CN1CC=C(c2csc3ccc(NC(=O)Nc4ccc(-c5ccncc5)c5ccccc45)cc23)CC1`, 804 nM. With `CN(C)CCOc1cc(NC(=O)Nc2ccc(-c3ccncc3)c3ccccc23)ccc1I` the figure was 777 nM. Consider `O=C(CCCCCNC(=O)c1ccc(O)c(-c2cccc(C(F)(F)F)c2)c1)NCCN1CCCCC1`, for which the XC50 was 888 nM. With `CC(C)CNCc1cccc(-c2cccc(CN(CCCN3CCN(C)CC3)C(=O)NC3CCCCC3)c2)c1` the figure was 761 nM.

Regarding `CC(Cc1ccc(OC2CCCCC2)cc1)NCC(O)c1cccc(Cl)c1` (stereo not drawn), the XC50 turned out to be 138 nM.

On to `O=C(c1ccc(Cl)cc1)C1CCCN(C2CCN(CCc3ccccc3)CC2)C1` (stereo not drawn), for which the XC50 came out at 1450 nM. With `N#Cc1cccc(COC(=O)C2=C(COc3ccccc3Cl)NC(=O)NC2c2c[nH]c3cnccc23)c1` (stereo not drawn) the figure was 792 nM; with `CCn1c(C)c(C)c2cc(C(=O)Nc3ccon3)ccc21`, 732 nM; with `CCc1ccc(S(=O)(=O)Nc2ccc(CCN3CCC(N4CCCCC4)CC3)cc2)cc1`, 988 nM. In turn, `Cc1cc(N2CCN(CC3CCCCC3)CC2)nc(Nc2ccc(Br)cc2)n1` displayed an XC50 of 1090 nM. With `O=C(NC1CC1)c1cnc(N2CCC(Oc3ccc(Cl)cc3)CC2)c(Cl)c1` the figure was 1090 nM; with `NC(=O)Nc1ccc2cn[nH]c2c1`, 205 nM; with `COc1cc(F)c2ncc(Cl)c(C(O)CN3CCC(NC(=O)c4ccc5c(c4)NC(=O)CS5)CC3)c2c1` (stereo not drawn), 680 nM. With `COc1cc2c(cc1S(=O)(=O)c1ccc(COc3ccc(C(F)(F)F)cc3)cc1)CNCC2` the figure was 746 nM; with `O=C1C(C2CCC(c3ccc(Cl)cc3)CC2)=C2OCC3COC2(O3)c2ccccc21` (stereo not drawn), 39 nM. As for `O=C(Cc1cccc(Cl)c1)Nc1cccc(-c2c[nH]c3nc(Nc4cccc(O)c4)ncc23)c1`, the XC50 came out at 731 nM. With `CN(C)C(=O)C(CC(=O)NCc1ccccc1Cl)N(C)C.CN(C)C(=O)CC(C(=O)NCc1ccccc1Cl)N(C)C` (stereo not drawn) the figure was 896 nM. With `CCC(COCc1ccc(Cl)cc1)N(C)CCN(C)C(CC)COCc1ccc(Cl)cc1` (stereo not drawn) the figure was 1060 nM. The compound `CC(C)(C)c1ccc(N2C(N)=NC(N)=NC2(C)C)cc1` came in with an XC50 of 26.7 nM. With `Cc1noc(C)c1-c1cccc(CNCc2ccc(-c3ccc(-c4nc5cc(F)ccc5[nH]4)s3)cc2)c1` the figure was 423 nM.

Take `COc1ccc(NC(=O)C2CCN(CCCCCNC(=O)/C=C/c3ccc(Cl)c(Cl)c3)CC2)cc1`: the XC50 turned out to be 828 nM.

The compound `O=C(Cn1cc(C(F)(F)F)cc(Cl)c1=O)N1CCN(S(=O)(=O)c2ccc(Cl)cc2)CC1` showed an XC50 of 897 nM.

`Nc1ncc(-c2ccccc2)cc1/C=C/c1cccnc1` showed an XC50 of 1120 nM.

In turn, `COc1ccc(-c2ccccc2CNC2Cc3ccccc3C2)cc1S(=O)(=O)NCCN1CCCC1` had an XC50 of 870 nM. With `O=C(N[C@@H](Cc1ccccc1)C(=O)NC1CCCc2ccccc21)c1ccc(O)c(-c2ccc(Cl)c(Cl)c2)c1` (stereo partly drawn) the figure was 209 nM. With `CCCCCCC(C)(C)c1cc(O)c2c3c(c(=O)oc2c1)CCN(Cc1ccccc1)C3` the figure was 217 nM. With `O=C(Nc1cccc2ccccc12)N1CCc2cc3nccc(N4CCN5CCC[C@H]5C4)c3cc21` the figure was 889 nM; with `O=C(Cc1cc(F)cc(F)c1)NC1CCN(c2ccnc3cc(Cl)ccc23)C1` (stereo not drawn), 250 nM; with `O=c1cc(NCCCNCc2ccc3c(c2)OC(F)(F)O3)[nH]c2ccccc12`, 770 nM.

As to `Nc1cc(C(F)(F)F)ccc1Cl`, the XC50 is 736 nM. The compound `O=C(Nc1ccc(Cl)cc1)N[C@H]1CCN(CCCCCNC(=O)C2CC2c2ccc(Cl)c(Cl)c2)C1` (stereo partly drawn) yielded an XC50 of 874 nM. With `CC1CN(c2cnn(Cc3cccc(NC(=O)Nc4ccc(-c5ccccc5)cc4)c3)c(=O)c2Cl)CC(C)N1` (stereo not drawn) the figure was 340 nM; with `O=C(Nc1ccc(N2CCCN(Cc3cccc(F)c3)CC2)cc1)c1cccs1`, 546 nM; with `COc1ccccc1N1CCN(Cc2cc(C(C)C)c(C)cc2O)CC1`, 572 nM.

Consider `CCOc1ccc(C(C)NC(=O)c2cc(Cl)ccc2OC)cc1OCC` (stereo not drawn), for which the XC50 was 971 nM. With `O=C(c1cc(C(=O)Nc2ccccc2)c(=O)n(-c2ccccc2)c1)c1cc(Cl)ccc1O` the figure was 390 nM; with `COc1ccc(NC(=O)[C@H](C)Nc2cc(C)nc(NCC3CCCCC3)n2)cc1`, 1280 nM.

Consider `CCCC(C)Nc1nc(C)cc(N[C@@H](CC(C)C)C(=O)NCCc2ccccc2)n1` (stereo partly drawn), for which the XC50 turned out to be 1360 nM. For the compound `O=C(Nc1ccc(Cl)cc1)c1ccc(CN2CCCN(Cc3ccc(F)cc3)CC2)cc1`, the XC50 amounted to 966 nM. With `CN(c1cc(NC(=O)c2ccc(F)cc2)ccn1)C1CCN(Cc2ccc(C#N)cc2)CC1` the figure was 1510 nM. With `O=C(Nc1cccc(CCNCc2ccccc2)c1)Nc1cccc2ccccc12` the figure was 729 nM. The compound `CC1(C)NC(N)=NC(=N)N1OCCOc1cccc(C(F)(F)F)c1` displayed an XC50 of 3.2 nM.

`Cc1cc(-c2nc3ccc(C(=O)NCc4ccccc4)cc3n2C2CCN(C(=O)c3ccc(-c4ccccc4)cc3)CC2)ccn1` had an XC50 of 898 nM.

The compound `CCOc1cc(CNCCCCCCNCc2cc(OCC)c(OCC)c3ccccc23)c2ccccc2c1OCC` came in with an XC50 of 284 nM. With `COc1cccc2c(NCCNc3ccnc4c(OC)cccc34)ccnc12` the figure was 267 nM. `Cc1ccc2[nH]c(C3CCCNC3)c(-c3ccncc3)c2c1` (stereo not drawn) registered an XC50 of 1230 nM. With `CC(C)(CNC(=O)C1CCN(Cc2ccoc2)CC1)c1nc(-c2ccc(Cl)c(O)c2)c(-c2ccncc2)[nH]1` the figure was 866 nM; with `COc1cccc(OCC2CCCN(CCCCNC(=O)c3ccc(NC(=O)c4ccc(Cl)cc4)cc3)C2)c1` (stereo not drawn), 748 nM; with `C=CCOC(=O)N1CCC(CNCc2cccc(-c3cccc(-c4nc5ccccc5[nH]4)c3)c2)C1` (stereo not drawn), 340 nM. The compound `OCCCCCCNc1nc(NCc2ccccc2-c2ccc(C(F)(F)F)cc2)nc(N2CCNCC2)n1` displayed an XC50 of 1440 nM. With `CCCCn1c(Sc2ccc(C#N)c([N+](=O)[O-])c2)nnc1-c1cccc(Cl)c1` the figure was 762 nM. With `CSc1nc2cc3c(cc2n1C(=O)c1ccc(C)cc1)OCCO3` the figure was 166 nM; with `CCCCCCn1ccc2c3c(N)nc(N)nc3ccc21`, 149 nM; with `Oc1ccccc1-c1nc2cccnc2n1CCc1cccc(C(F)(F)F)c1`, 1270 nM. With `Cc1ccc(C(=O)Nc2ccc(F)cc2)cc1-c1nc(NC2CC(C)(C)NC(C)(C)C2)nc2c1ccc(=O)n2-c1c(F)cccc1F` the figure was 684 nM; with `Cn1cnc2c(Nc3ccncc3)nc(-c3ccc(OC(F)(F)F)cc3)nc21`, 1100 nM. Take `CC(=O)C1(c2ccccc2)CCN(CCC2(c3ccc(Cl)c(Cl)c3)CN(C(=O)c3cccc(Cl)c3)CCO2)CC1` (stereo not drawn): the XC50 was 854 nM. Consider `CN(C)Cc1ccc(-c2ccc3c(Nc4ccc(Oc5ccccn5)cc4)ccnc3c2)o1`, for which the XC50 came out at 159 nM.
